Reference: article PMC7395068, “The evolution of strategies to minimise the risk of human drug-induced liver injury (DILI) in drug discovery and development” (Archives of Toxicology, 2020)
Like-named read-outs stand apart in the source and are kept apart here.

What was measured:
hLiMTs [1] = assay: Combined HCI (HCS) and cellular ATP 3D assay in hLiMTs; conditions: for AC50 / minimal effective concentration: Homo sapiens
PHH = conditions: cited from earlier work
HepG2 cells [2] = conditions: cited from earlier work
hLiMTs [3] = conditions: cited from earlier work
[4] = cited from earlier work
HepG2 cells [5] = conditions: cited from earlier work; remark: listed apart in the source
[6] = tested on: HepG2 C3A spheroid, BSEP, Glu/Gal in HepG2 cells, bioactivation; conditions: cited from earlier work
PHH spheroids = conditions: cited from earlier work
human hepatocytes = conditions: cited from earlier work
[7] = read-out: Human plasma Cmax; total plasma Cmax.tot, median of 9 literature references; cited from earlier work
Upcyte human hepatocytes = conditions: In vitro Assay; ref Tolosa 2019; cited from earlier work
rBsep = conditions: cited from earlier work
[8] = tested on: THLE or HepG2 cells, isolated mitochondria, BSEP; conditions: cited from earlier work
HepaRG spheroids = assay: Combined HCI (HCS) and cellular ATP 3D assay in HepaRG spheroids; conditions: for AC50 / minimal effective concentration: Homo sapiens
[9] = cited from earlier work; remark: listed apart in the source
[10] = tested on: THLE-Null and THLE-3A4 cells; conditions: In vitro Assay; ref Gustafsson 2014; cited from earlier work
HepG2 cells [11] = conditions: cited from earlier work; remark: listed apart in the source
[12] = plasma free fraction; cited from earlier work
[13] = Plasma free fraction (fu) and unbound Cmax (Cmax,u); format: in vitro ADME, human; conditions: unbound plasma Cmax
Method: The prediction of DILI severity was evaluated further using the 3D combined HCI assays using plasma-free fraction. The majority of fu values were obtained from literature, when unavailable in-house prediction was utilised. Unbound plasma Cmax concentrations (Cmax,u) were derived by multiplying total plasma Cmax with the corresponding free fraction (fu) for each compound.

[14] = ref Chen 2011; cited from earlier work
[15] = tested on: HepG2 cells, primary human hepatocytes; conditions: In vitro Assay; ref Garside 2014; cited from earlier work
[16] = Microtissue model structural based (HCI), combined HCS and ATP, MEC < 25 × Cmax.tot cut-off
[17] = In vitro Assay, ref Proctor 2017
[18] = In vitro Assay, ref Persson 2013
[19] = Modeled in vitro assays (cytotoxicity, mitochondrial dysfunction, BSEP), ref Aleo et al. 2019

CN(C)CCCN1c2ccccc2Sc2ccc(Cl)cc21 [chlorpromazine, reference compound]
AC50 (hLiMTs [1]; read-out: ATP endpoint AC50): 3.73 µM | minimal effective concentration (hLiMTs [1]; read-out: ATP endpoint MEC): 2.7 µM | AC50 (hLiMTs [1]; read-out: HCS endpoint AC50): 6.41 µM | minimal effective concentration (hLiMTs [1]; read-out: HCS endpoint MEC): 2.47 µM | DILI prediction hLiMTs (HCS-MEC) (hLiMTs [1]; [16]): +VE (MEC < 25 × Cmax.tot cut-off) | hLiMTs <25x Avg Cmax ATP (hLiMTs [1]; hLiMTs, ATP endpoint, cut-off <25x Avg Cmax): +ve | hLiMTs <100x Avg Cmaxu ATP (hLiMTs [1]; hLiMTs, ATP endpoint, cut-off <100x Avg Cmaxu): +ve (<100x Avg Cmaxu) | hLiMTs <25x Avg Cmax HCS (hLiMTs [1]; hLiMTs, HCS endpoints, cut-off <25x Avg Cmax): +ve | hLiMTs <100x Avg Cmaxu HCS (hLiMTs [1]; hLiMTs, HCS endpoints, cut-off <100x Avg Cmaxu): +ve (<100x Avg Cmaxu) | hLiMTs <25x Avg Cmax All (hLiMTs [1]; hLiMTs, all endpoints (ATP and HCS), cut-off <25x Avg Cmax): +ve | hLiMTs Cmax max All (hLiMTs [1]; hLiMTs, all endpoints, Cmax max used): +ve | hLiMTs Cmax min All (hLiMTs [1]; hLiMTs, all endpoints, Cmax min used): +ve | hLiMTs <10 uM All (hLiMTs [1]; hLiMTs, all endpoints, cut-off <10 uM): +ve (<10 uM) | hLiMTs <100x Avg Cmaxu All (hLiMTs [1]; hLiMTs, all endpoints, cut-off <100x Avg Cmaxu): +ve (<100x Avg Cmaxu) | PHH/100xCmax, Proctor (2017) (PHH; 2D PHH, ATP, IC50 < 100 × Cmax.tot, ref Proctor et al. 2017): +VE (IC50 < 100 × Cmax.tot) | PHH/100uM, Proctor (2017) (PHH; 2D PHH, ATP, IC50 threshold 100 µM, ref Proctor et al. 2017): +VE (IC50 threshold of 100 µM) | PHH ATP <100uM (PHH; [17]): +VE (IC50 threshold of 100 µM) | Structural based (HCI) (HepG2 cells [2]; In vitro Assay, ref Tolosa 2012): +VE | DILI in vitro assay prediction, Tolosa (2012) (HepG2 cells [2]; Structural based (HCI), HepG2, ref Tolosa et al. 2012): +VE | hLiMTs ATP <100uM (hLiMTs [3]; [17]): +VE (IC50 threshold of 100 µM) | hLiMTs/100xCmax, Proctor (2017) (hLiMTs [3]; hLiMTs, ATP, IC50 < 100 × Cmax.tot, ref Proctor et al. 2017): +VE (IC50 < 100 × Cmax.tot) | hLiMTs/100uM, Proctor (2017) (hLiMTs [3]; hLiMTs, ATP, IC50 threshold 100 µM, ref Proctor et al. 2017): +VE (IC50 threshold of 100 µM) | Assigned DILI category ([4]; Chen et al. 2016 or literature alignment, ref Chen et al. 2016): 2 | In vivo DILI ([4]; […]): +VE | In vivo DILI ([4]; ref Aleo 2019): +VE | In vivo DILI ([4]; ref Dawson 2012): +VE | In vivo DILI ([4]; ref Garside 2014): +VE | In vivo DILI ([4]; ref Gustafsson 2014): +VE | In vivo DILI ([4]; ref O'Brien 2006): +VE | In vivo DILI ([4]; ref Persson 2013): +VE | In vivo DILI ([4]; ref Proctor 2017): +VE | In vivo DILI ([4]; ref Tolosa 2012): +VE | In vivo DILI ([4]; ref Tolosa 2019): +VE | In vivo DILI ([4]; ref Vorrink 2018): +VE | In vivo DILI ([4]; ref Williams 2019): +VE | In vivo DILI ([4]; ref Xu 2008): +VE | Cluser analysis (HepG2 cells [5]; [18]): +VE | Structural based (HCI) (HepG2 cells [5]; [18]): +VE | DILI in vitro assay prediction, Persson (2013) (HepG2 cells [5]; Structural based (HCI), HepG2, ref Persson et al. 2013): +VE | Bayesian Machine Learning DILI prediction, Williams (2019) ([6]; Bayesian modeling, ref Williams et al. 2019): +VE | Bayesian Machine Learning ([6]; In vitro Assay, ref Williams 2019): +VE | hLiMTs ATP <20 x Cmax (PHH spheroids; In vitro Assay, ref Vorrink 2018): +VE (IC20 < 20 × Cmax.tot cut-off) | DILI in vitro assay prediction, Vorrink (2018) (PHH spheroids; PHH spheroids, ATP, 14 days, IC20 < 20 × Cmax.tot, ref Vorrink et al. 2018): +VE (IC20 < 20 × Cmax.tot cut-off) | Structural based (HCI) (human hepatocytes; In vitro Assay, ref Xu 2008): +VE | DILI in vitro assay prediction, Xu (2008) (human hepatocytes; Structural based (HCI), human hepatocytes, ref Xu et al. 2008): +VE | Cmax [7]: 941 nM | Upcytes multi donor assay 14day data (Upcyte human hepatocytes): +VE | Inhibition of rBsep cutoff<1& cmax u>.2 (rBsep; In vitro Assay, ref Dawson 2012): -VE | Inhibition of rBsep cutoff<3 (rBsep): +VE | Partition Hybrid HRM Score ([8]; In vitro Assay, ref Aleo 2019): +VE | Ro2 Hybrid HRM Score ([8]; In vitro Assay, ref Aleo 2019): +VE | Partition Hybrid HRM Score ≥4, Aleo (2019) [8, 19]: +VE (Partition Hybrid HRM Score ≥4) | Partition Hybrid HRM Score ≥8, Aleo (2019) [8, 19]: -VE | Rule of Two hybrid HRM Score ≥3, Aleo (2019) [8, 19]: +VE (Rule of Two hybrid HRM Score ≥3) | Rule of Two hybrid HRM Score ≥8, Aleo (2019) [8, 19]: -VE | HepaRG <25x Avg Cmax ATP (HepaRG spheroids; HepaRG, ATP endpoint, cut-off <25x Avg Cmax): +ve | HepaRG <100x Avg Cmaxu ATP (HepaRG spheroids; HepaRG, ATP endpoint, cut-off <100x Avg Cmaxu): +ve (<100x Avg Cmaxu) | HepaRG <25x Avg Cmax HCS (HepaRG spheroids; HepaRG, HCS endpoints, cut-off <25x Avg Cmax): +ve | HepaRG <100x Avg Cmaxu HCS (HepaRG spheroids; HepaRG, HCS endpoints, cut-off <100x Avg Cmaxu): +ve (<100x Avg Cmaxu) | HepaRG <25x Avg Cmax All (HepaRG spheroids; HepaRG, all endpoints (ATP and HCS), cut-off <25x Avg Cmax): +ve | HepaRG Cmax max All (HepaRG spheroids; HepaRG, all endpoints, Cmax max used): +ve | HepaRG Cmax min All (HepaRG spheroids; HepaRG, all endpoints, Cmax min used): +ve | HepaRG <10 uM All (HepaRG spheroids; HepaRG, all endpoints, cut-off <10 uM): +ve (<10 uM) | HepaRG <100x Avg Cmaxu All (HepaRG spheroids; HepaRG, all endpoints, cut-off <100x Avg Cmaxu): +ve (<100x Avg Cmaxu) | AC50 (HepaRG spheroids; HepaRG, read-out: ATP endpoint AC50): 6.33 µM | minimal effective concentration (HepaRG spheroids; HepaRG, read-out: ATP endpoint MEC): 3.45 µM | AC50 (HepaRG spheroids; HepaRG, read-out: HCS endpoint AC50): 8.8 µM | minimal effective concentration (HepaRG spheroids; HepaRG, read-out: HCS endpoint MEC): 1.72 µM | DILI prediction HepaRG spheroids (HCS-MEC) (HepaRG spheroids; [16]): +VE (MEC < 25 × Cmax.tot cut-off) | DILI severity category (Chen et al. [2016]) ([9]; LTKB DILIrank category, ref Chen et al. 2016): Less | DILI severity category (Chen 2016) ([9]; human DILI classification, LTKB DILIrank, ref Chen et al. 2016): Less | DILI severity category ([9]; human DILI severity, ref Chen et al.): Less | DILI +VE (5-8), DILI -VE (-4) ([9]; ref Chen 2016): +VE | DILI severity category ([9]; ref Chen 2016): vLess-DILI-Concern | THLE-Null [10]: +VE | Structural based (HCI) (HepG2 cells [11]; In vitro Assay, ref O'Brien 2006): +VE | DILI in vitro assay prediction, O'Brien (2006) (HepG2 cells [11]; Structural based (HCI), HepG2, ref O'Brien et al. 2006): +VE (lowest HCI endpoint IC50 (or in the absence of dose–response < 100 µM) < 30 × total human plasma exposure levels (Cmax.tot)) | fu [12]: 0.050 | Human plasma Cmax,u [13]: 47 nM | DILI Score (FDA) (1-8) [14]: 2 | Cluster 1-6 +VE Assay [15]: +VE
